1 substance from publication PMC12738692, “Identification, characterization, and structure-activity relationship of the ASIC3-selective peptide WRPRFa” (Communications Chemistry, 2025) can be followed below.

The target of one assay is T1, human ASIC3 (Homo sapiens, UniProt Q9UHC3).
T1 construct: CHO cells stably expressing human ASIC3 (NM_004769.1)
T1 sequence (Q9UHC3 1-531): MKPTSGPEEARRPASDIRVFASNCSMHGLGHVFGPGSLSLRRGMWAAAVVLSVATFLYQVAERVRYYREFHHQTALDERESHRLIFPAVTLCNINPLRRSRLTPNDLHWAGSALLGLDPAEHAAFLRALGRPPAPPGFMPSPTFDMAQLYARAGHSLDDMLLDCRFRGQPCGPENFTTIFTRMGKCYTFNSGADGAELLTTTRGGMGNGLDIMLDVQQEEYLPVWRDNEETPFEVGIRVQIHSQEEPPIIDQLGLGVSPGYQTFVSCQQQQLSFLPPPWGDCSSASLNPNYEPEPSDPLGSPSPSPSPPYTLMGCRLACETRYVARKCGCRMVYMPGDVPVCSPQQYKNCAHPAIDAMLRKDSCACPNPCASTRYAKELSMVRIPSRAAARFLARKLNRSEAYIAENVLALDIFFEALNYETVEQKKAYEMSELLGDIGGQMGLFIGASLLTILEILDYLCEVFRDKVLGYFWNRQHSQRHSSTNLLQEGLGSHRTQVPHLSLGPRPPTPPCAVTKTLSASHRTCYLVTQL
Description: QPatch II peptide concentration-response (I3s/Ipk). It counts as cell-based. The settings on record: WT ASIC3, QPatch II, read-out: EC50 (95% CI). The method, then: RFamide peptide activity on ASIC3 was measured on the QPatch II platform (Sophion, Ballerup, Denmark) using either a CHO or HEK stable cell line and analyzed with Sophion Analyzer software (version 5.2). Prior to recording, the cells were washed twice in PBS (Gibco, Paisley, UK) and treated with Detachin (Genlantis, San Diego) for 3 min, then resuspended in their respective growth media without serum for a concentration of 2 × 10^6 cells/ml. A minimum of 5 mL of cells was added to the QStirrer, which was placed on the deck of the QPatch II and allowed to incubate at room temperature for a minimum of 20 min.
The bath solution contained 135 mM NaCl, 5 mM KCl, 4.8 mM CaCl2, 1 mM MgCl2, 10 mM HEPES, 10 mM MES, and 10 mM glucose adjusted to pH 7.4 with NaOH. The intracellular solution contained 65 mM CsF, 65 mM CsCl, 10 mM HEPES, 5 mM EGTA, 1 mM MgCl2, adjusted to pH 7.4 with CsOH. Cells were held at -60 mV and ASIC currents were evoked with 3 s applications of pH 6.3 buffer. Peptides were preincubated for at least 2 min. The extracellular solution was changed by dispensing 5 µL of buffer through the ~1.7 µL recording chamber, with a solution switch time of 100 ms, that exchanges 99% of the solution. Signals were acquired at 1 kHz and low-pass filtered at 300 Hz. Experiments performed on QPatch II are specifically indicated in the text.
(In general: Patch clamp records ionic current or voltage across a cell membrane.)

In another assay the target is T2, ASIC3 E378Q (Homo sapiens, UniProt Q9UHC3, E378Q).
T2 construct: human ASIC3 (NM_004769.4); P2A-mCherry reporter (C, cleaved yes); expressed in transfected cells; host or cells: CHO cells (85050302, Sigma), transient transfection
T2 sequence (Q9UHC3 1-531 E378Q): T1 sequence (Q9UHC3 1-531) with E378Q
Description: MPC peptide activity on ASIC3 E378Q mutant. It counts as cell-based. Particulars: read-out: EC50 (95% CI). The method, then:
We individually mutated the four glutamates to glutamine to remove their charge but maintain the side chain structure (Fig. 4C). We tested each mutant by incubating HEK cells stably expressing ASIC3 or CHO cells transfected with mutant ASIC3 with 30 µM WRPRFa before a pH 6.3 acid stimulus.
All mutagenesis was performed at Genscript, and sequences were verified by nanopore sequencing by Plasmidsaurus (Eugene, OR). The numbering of ASIC3 amino acids is based on RefSeq NP_004760.1. Plasmids were transfected into CHO cells using Lipofectamine 3000 (Thermo) according to the manufacturer’s protocol. Cells were used for patch-clamp recordings 24–48 h after transfection.
CHO and HEK cells were tested in the whole-cell configuration on MPC platforms using an Axopatch 200B amplifier (Axon Instruments, San Jose, CA) and a Digidata 1322A or Digidata 1440A digitizer (Axon) using pClamp 9.2 or 10.7 (Molecular Devices, San Jose, CA), respectively. When testing transfected cells, red fluorescence from the cleaved mCherry reporter was used to identify cells expressing ASIC3, ASIC131, or ASIC313. For cells expressing transfected ASIC1a or ASIC2a, the green signal from the cleaved eGFP reporter was used. All electrophysiology data were analyzed with Clampfit 11.1 (Molecular Devices).

Numbering of substitutions follows the chain as printed. Where no end group is shown, it is not given here.

On to WRPRF-NH2 [WRPRFa], for which the figures for the EC50 on human ASIC3 and on ASIC3 E378Q were 6.31 µM and 9.59 µM, respectively.

For orientation: EC50 means the concentration at which the effect is half-maximal.
